Measurements from ChEMBL document CHEMBL1795328, “Synthesis of novel triplet drugs with 1,3,5-trioxazatriquinane skeletons and their pharmacologies. 1: Synthesis of triplet drugs with morphinan skeletons” (Bioorg Med Chem Lett, 2011).
pKi: −log10 of the molar value.

Columns and labels:
Mu-type opioid receptor = Mu-type opioid receptor (Cavia porcellus, UniProt P97266); assay: Displacement of [3H]-DAMGO from mu opioid receptor in guinea pig forebrain homogenates; type: tissue-based, Brain
[1] = Displacement of [3H]-NTI from delta opioid receptor in guinea pig forebrain homogenates; type: tissue-based, Cavia porcellus, Brain
[2] = target: Kappa-type opioid receptor (Cavia porcellus, UniProt P41144); assay: Displacement of [3H]-U69593 from kappa opioid receptor in guinea pig cerebellum homogenates; type: tissue-based
Cavia porcellus = species: Cavia porcellus; assay: Selectivity ratio of Ki for delta opioid receptor in guinea pig forebrain homogenates to Ki for mu opioid receptor in guinea pig forebrain homogenates; type: tissue-based
Mus musculus [3] = assay: Antinociceptive activity in sc dosed mouse by acetic acid writhing test; type: functional
Mus musculus [4] = assay: Ratio of morphine ED50 to compound ED50 for antinociceptive activity in sc dosed mouse by acetic acid writhing test; type: functional

Chain of Mu-type opioid receptor (P97266 whole entry): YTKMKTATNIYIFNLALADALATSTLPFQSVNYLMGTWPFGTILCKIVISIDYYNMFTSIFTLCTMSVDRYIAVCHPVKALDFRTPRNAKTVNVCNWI
Chain of Kappa-type opioid receptor (P41144 whole entry): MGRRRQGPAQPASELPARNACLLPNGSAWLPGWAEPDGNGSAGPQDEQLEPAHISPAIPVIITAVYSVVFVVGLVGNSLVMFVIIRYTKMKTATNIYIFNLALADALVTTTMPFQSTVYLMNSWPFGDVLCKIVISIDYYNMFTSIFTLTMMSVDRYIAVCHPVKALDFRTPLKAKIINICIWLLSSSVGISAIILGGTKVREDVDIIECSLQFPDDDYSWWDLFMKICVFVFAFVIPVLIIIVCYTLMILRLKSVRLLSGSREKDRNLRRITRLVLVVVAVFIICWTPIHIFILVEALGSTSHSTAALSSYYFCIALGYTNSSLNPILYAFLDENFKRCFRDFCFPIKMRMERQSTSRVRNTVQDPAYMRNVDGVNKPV

Structure (SMILES) | pKi (Mu-type opioid receptor) | pKi [1] | pKi [2] | Ratio Ki (Cavia porcellus) | Activity (Mus musculus [3]) | ED50 (Mus musculus [3]) [mg/kg] | Ratio ED50 (Mus musculus [4])
CN1CC[C@]23c4c5ccc(O)c4O[C@H]2[C@]2(CC[C@@]3(O)[C@H]1C5)O[C@@H]1N3[C@H]2O[C@]2(CC[C@@]4(O)[C@H]5Cc6ccc(O)c7c6[C@@]4(CCN5C)[C@H]2O7)[C@@H]3O[C@]12CC[C@@]1(O)[C@H]3Cc4ccc(O)c5c4[C@@]1(CCN3C)[C@H]2O5 | 8.98 | 7.41 | 7.79 | 36.8 | Dose-dependent effect | 0.037 | 16
O=C1CC[C@@]2(O)[C@H]3Cc4ccc(O)c5c4[C@@]2(CCN3CC2CC2)[C@H]1O5 [NALTREXONE] |  | 7.68 |  |  |  |  | 
CN1CC[C@]23c4c5ccc(O)c4O[C@H]2[C@]2(CC[C@@]3(O)[C@H]1C5)O[C@@H]1N3[C@H]2O[C@]2(CC[C@@]4(O)[C@H]5Cc6ccc(O)c7c6[C@@]4(CCN5CC4CC4)[C@H]2O7)[C@@H]3O[C@]12CC[C@@]1(O)[C@H]3Cc4ccc(O)c5c4[C@@]1(CCN3CC1CC1)[C@H]2O5 | 8.40 | 7.61 | 8.00 | 6.2 |  |  | 
CN1CC[C@]23c4c5ccc(O)c4O[C@H]2[C@]2(CC[C@@]3(O)[C@H]1C5)O[C@@H]1N3[C@H]2O[C@]2(CC[C@@]4(O)[C@H]5Cc6ccc(O)c7c6[C@@]4(CCN5CC4CC4)[C@H]2O7)[C@@H]3O[C@]12CC[C@@]1(O)[C@H]3Cc4ccc(O)c5c4[C@@]1(CCN3C)[C@H]2O5 | 8.73 | 7.63 | 7.96 | 12.7 |  |  | 
Oc1ccc2c3c1O[C@H]1[C@]4(CC[C@@]5(O)[C@@H](C2)N(CC2CC2)CC[C@]315)O[C@@H]1N2[C@H]4O[C@]3(CC[C@@]4(O)[C@H]5Cc6ccc(O)c7c6[C@@]4(CCN5CC4CC4)[C@H]3O7)[C@@H]2O[C@]12CC[C@@]1(O)[C@H]3Cc4ccc(O)c5c4[C@@]1(CCN3CC1CC1)[C@H]2O5 | 7.65 | 6.91 | 7.66 | 5.5 |  |  | 
Oc1ccc2c3c1O[C@H]1[C@]4(CC[C@H]5[C@@H](C2)N(CC2CC2)CC[C@@]351)O[C@@H]1N2[C@H]4O[C@]3(CC[C@H]4[C@H]5Cc6ccc(O)c7c6[C@@]4(CCN5CC4CC4)[C@H]3O7)[C@@H]2O[C@]12CC[C@H]1[C@H]3Cc4ccc(O)c5c4[C@@]1(CCN3CC1CC1)[C@H]2O5 | 7.65 | 7.27 | 7.36 | 2.4 |  |  | 
